Measured values taken from ChEMBL document CHEMBL3217479, “Overcoming retinoic acid receptor- based testicular toxicity in the optimisation of glucokinase activators” (Medchemcomm, 2011).
Values after ≈ are worked out from the molar mass of the structure shown.

Legend:
[1] = Solubility of the compound; assay type: physicochemical
[2] = Lipophilicity, log D of the compound; assay type: physicochemical; settings: octanol/water
[3] = Apparent permeability from apical to basolateral side of human Caco2 cells; assay type: ADME, cell-based; settings: Caco-2
[4] = target: T1, Retinoic acid receptor alpha (Homo sapiens, UniProt P10276); assay: Inhibition of RAR alpha (unknown origin)
T1 sequence (P10276 whole entry): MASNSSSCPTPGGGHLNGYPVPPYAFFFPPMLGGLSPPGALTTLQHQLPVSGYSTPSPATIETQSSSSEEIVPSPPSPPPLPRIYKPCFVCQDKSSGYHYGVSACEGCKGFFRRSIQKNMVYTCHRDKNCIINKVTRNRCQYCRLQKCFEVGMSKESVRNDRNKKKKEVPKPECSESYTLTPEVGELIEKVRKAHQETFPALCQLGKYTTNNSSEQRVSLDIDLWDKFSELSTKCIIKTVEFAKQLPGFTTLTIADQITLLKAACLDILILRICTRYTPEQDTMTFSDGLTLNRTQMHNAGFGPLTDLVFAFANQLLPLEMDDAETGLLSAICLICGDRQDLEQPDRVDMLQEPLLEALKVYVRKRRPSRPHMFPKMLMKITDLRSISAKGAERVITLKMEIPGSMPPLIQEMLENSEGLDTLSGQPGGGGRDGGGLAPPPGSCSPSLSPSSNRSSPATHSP

[5] = target: T2, Retinoic acid receptor gamma (Homo sapiens, UniProt P13631); assay: Inhibition of RAR gamma (unknown origin)
T2 sequence (P13631 whole entry): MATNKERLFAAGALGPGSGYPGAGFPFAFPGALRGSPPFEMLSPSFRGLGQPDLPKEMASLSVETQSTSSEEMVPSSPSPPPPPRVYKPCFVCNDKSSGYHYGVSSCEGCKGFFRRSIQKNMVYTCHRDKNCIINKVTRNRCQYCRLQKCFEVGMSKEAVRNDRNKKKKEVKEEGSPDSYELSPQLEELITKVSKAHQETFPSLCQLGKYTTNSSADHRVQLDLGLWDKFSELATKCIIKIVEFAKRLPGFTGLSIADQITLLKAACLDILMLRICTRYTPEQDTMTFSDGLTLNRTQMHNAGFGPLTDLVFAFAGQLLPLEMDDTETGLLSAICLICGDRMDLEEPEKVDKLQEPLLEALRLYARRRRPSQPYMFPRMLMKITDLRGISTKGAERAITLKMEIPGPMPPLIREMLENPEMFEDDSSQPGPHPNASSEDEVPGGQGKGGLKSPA

[6] = Toxicity in testis (unknown origin); assay type: tissue-based
[7] = target: T3, Retinoic acid receptor beta (Homo sapiens, UniProt P10826); assay: Inhibition of RAR beta (unknown origin)
T3 sequence (P10826 whole entry): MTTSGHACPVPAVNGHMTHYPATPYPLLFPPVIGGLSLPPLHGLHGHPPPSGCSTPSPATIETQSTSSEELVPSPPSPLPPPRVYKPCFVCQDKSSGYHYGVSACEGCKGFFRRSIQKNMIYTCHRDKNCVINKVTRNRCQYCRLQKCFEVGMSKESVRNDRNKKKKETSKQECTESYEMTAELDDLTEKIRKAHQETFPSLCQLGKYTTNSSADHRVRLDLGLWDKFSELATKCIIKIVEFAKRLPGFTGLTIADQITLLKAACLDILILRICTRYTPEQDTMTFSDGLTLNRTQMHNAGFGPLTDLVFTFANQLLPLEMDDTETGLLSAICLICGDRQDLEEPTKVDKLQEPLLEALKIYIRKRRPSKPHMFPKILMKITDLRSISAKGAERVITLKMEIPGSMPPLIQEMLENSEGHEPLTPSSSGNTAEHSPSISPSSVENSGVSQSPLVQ

[8] = target: T4, Hexokinase-4 (Homo sapiens, UniProt P35557); assay: Activation of glucokinase (unknown origin)
T4 sequence (P35557 whole entry): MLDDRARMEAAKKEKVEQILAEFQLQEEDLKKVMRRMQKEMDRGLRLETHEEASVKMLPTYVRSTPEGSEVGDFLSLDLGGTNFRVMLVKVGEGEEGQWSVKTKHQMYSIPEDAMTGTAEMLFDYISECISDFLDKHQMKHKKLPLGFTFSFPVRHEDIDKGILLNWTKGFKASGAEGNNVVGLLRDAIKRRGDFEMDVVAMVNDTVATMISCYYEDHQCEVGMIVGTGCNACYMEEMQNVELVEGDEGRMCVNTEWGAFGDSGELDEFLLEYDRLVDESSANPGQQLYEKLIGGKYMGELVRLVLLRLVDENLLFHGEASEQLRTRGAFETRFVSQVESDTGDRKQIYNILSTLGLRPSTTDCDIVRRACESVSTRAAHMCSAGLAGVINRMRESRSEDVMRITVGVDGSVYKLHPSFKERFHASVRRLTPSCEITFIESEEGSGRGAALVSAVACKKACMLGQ

[9] = system: Rattus norvegicus; assay: Antidiabetic activity in rat assessed as reduction of glucose AUC at 10 mg/kg by oral glucose tolerance test; assay type: functional
[10] = target: Voltage-gated inwardly rectifying potassium channel KCNH2 (Homo sapiens, UniProt Q12809)
Voltage-gated inwardly rectifying potassium channel KCNH2, sequence (Q12809 whole entry): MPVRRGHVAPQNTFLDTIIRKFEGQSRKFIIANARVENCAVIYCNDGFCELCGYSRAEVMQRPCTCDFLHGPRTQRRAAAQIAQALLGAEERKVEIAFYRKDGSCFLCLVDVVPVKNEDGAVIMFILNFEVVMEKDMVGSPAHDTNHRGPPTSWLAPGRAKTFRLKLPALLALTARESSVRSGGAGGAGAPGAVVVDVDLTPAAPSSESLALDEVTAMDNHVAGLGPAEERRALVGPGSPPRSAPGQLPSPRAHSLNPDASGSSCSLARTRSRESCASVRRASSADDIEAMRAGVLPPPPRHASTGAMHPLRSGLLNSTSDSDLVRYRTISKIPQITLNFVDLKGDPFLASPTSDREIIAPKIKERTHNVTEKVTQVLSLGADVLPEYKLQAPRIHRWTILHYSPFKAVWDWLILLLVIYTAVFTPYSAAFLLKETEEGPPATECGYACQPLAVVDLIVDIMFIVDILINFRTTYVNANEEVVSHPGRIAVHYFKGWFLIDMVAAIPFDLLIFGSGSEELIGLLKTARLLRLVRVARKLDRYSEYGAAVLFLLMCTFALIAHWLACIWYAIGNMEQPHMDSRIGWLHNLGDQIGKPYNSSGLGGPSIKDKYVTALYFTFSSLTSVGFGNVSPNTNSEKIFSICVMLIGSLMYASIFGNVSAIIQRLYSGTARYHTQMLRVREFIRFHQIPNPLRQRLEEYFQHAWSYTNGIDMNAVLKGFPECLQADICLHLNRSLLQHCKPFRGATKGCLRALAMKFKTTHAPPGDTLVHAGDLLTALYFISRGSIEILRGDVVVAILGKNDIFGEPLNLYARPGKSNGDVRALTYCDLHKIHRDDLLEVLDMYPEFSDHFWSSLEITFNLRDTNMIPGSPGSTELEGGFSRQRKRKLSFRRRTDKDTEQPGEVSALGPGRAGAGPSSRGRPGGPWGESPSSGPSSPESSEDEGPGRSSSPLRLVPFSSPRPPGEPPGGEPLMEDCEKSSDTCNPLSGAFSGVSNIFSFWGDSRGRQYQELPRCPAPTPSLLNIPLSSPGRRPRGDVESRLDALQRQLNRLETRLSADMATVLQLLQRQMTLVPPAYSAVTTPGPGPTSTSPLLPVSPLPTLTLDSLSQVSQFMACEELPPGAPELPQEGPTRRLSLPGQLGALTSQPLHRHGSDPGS

[11] = system: Rattus norvegicus; assay: Antidiabetic activity in rat assessed as reduction of glucose AUC at 3 mg/kg by oral glucose tolerance test; assay type: functional

SMILES	solubility [1] [µM]	logD [2]	Papp A→B [3] [×10⁻⁶ cm/s]	IC50 [4] [µM]	IC50 [5] [µM]	Activity [6]	IC50 [7] [µM]	EC50 [8] [µM]	inhibition in vivo at 10 mg/kg [9] [%]	IC50 [10] [µM]	inhibition in vivo at 3 mg/kg [11] [%]
COC[C@H](C)Oc1cc(Oc2ccc(S(C)(=O)=O)cc2)cc(C(=O)Nc2ccc(C(=O)O)cn2)c1	> 3000	-0.4	0.3	–	–	–	–	–	–	–	–
COC[C@H](C)Oc1cc(Oc2cc(F)cc(F)c2)cc(C(=O)Nc2ccc(C(=O)O)cn2)c1	805 (≈ 369 µg/mL)	1.4	7.4	< 0.001	19	Toxic	< 0.001	–	–	–	–
COC[C@H](C)Oc1cc(O[C@@H](C)Cc2ccccc2)cc(C(=O)Nc2ccc(C(=O)O)cn2)c1	–	–	–	0.47	> 1000	Toxic	32	–	–	–	–
COC[C@H](C)Oc1cc(Oc2cc(F)cc(F)c2)cc(C(=O)Nc2nccs2)c1	< 0.7	4.1	–	–	–	–	–	0.07	–	–	–
COC[C@H](C)Oc1cc(Oc2ccc(S(C)(=O)=O)cc2)cc(C(=O)Nc2nccs2)c1	20 (≈ 9.25 µg/mL)	3.2	54	> 30	–	Non-toxic	–	0.06	29	–	–
COC[C@H](C)Oc1cc(Oc2ccc(S(C)(=O)=O)cc2)cc(C(=O)Nc2nc(C)ns2)c1	129 (≈ 61.6 µg/mL)	2.9	29	> 30	–	Non-toxic	–	0.11	–	7.5	27
O=C(O)c1ccc(NC(=O)c2cc(OCc3ccccc3F)cc(OCc3ccccc3F)c2)nc1	–	–	–	0.0111	1.2	Toxic	0.007	–	–	–	–
CC(C)COc1cc(OC(C)C)cc(C(=O)Nc2ccc(C(=O)O)cn2)c1	–	–	–	0.01	22	Toxic	0.135	–	–	–	–
